Assay results taken from patent publication US7462600B2, “Macrolides” (Pfizer Inc, priority 2004, dated 2008).
≈ marks a conversion by molar mass, not a printed value. Like-named read-outs stand apart in the source and are kept apart here.

Tests used:
Type in all cases: cell-based
[1] = system: Streptococcus pneumoniae 1016; assay: MIC, microtiter broth dilution (NCCLS M100-S14), S. pneumoniae 1016 (susceptible)
Procedure, shortened: (§1)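 Steps: dissolve compound in DMSO to 40 mg/ml stock; dilute in broth across microtiter trays; inoculate strains; record MIC per NCCLS M100-S14.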

[2] = system: Streptococcus pyogenes 1079; assay: MIC, microtiter broth dilution (NCCLS M100-S14), S. pyogenes 1079 (ermB)
Procedure, shortened: as §1

[3] = system: Streptococcus pneumoniae 1095; settings: microtiter broth dilution
Procedure, shortened: as §1

[4] = system: Streptococcus pneumoniae 1175; settings: microtiter broth dilution
Procedure, shortened: as §1

[5] = system: Haemophilus influenzae 1218; assay: MIC, microtiter broth dilution (NCCLS M100-S14), H. influenzae 1218 (susceptible)
Procedure, shortened: as §1

[6] = S. pneumoniae 1016 (susceptible)
[7] = H. influenzae 1218 (susceptible)

Row | SMILES | MIC S. pneumo. 1016 [1, 6] [µg/mL] | MIC S. pyogenes 1079 ([2]; S. pyogenes 1079 (ermB)) [µg/mL] | MIC S. pneumo. 1095 ([3]; S. pneumoniae 1095 (ermB)) [µg/mL] | MIC S. pneumo. 1175 ([4]; S. pneumoniae 1175 (mefA)) [µg/mL] | MIC H. influenzae 1218 [5, 7] [µg/mL] | MIC S. pneumo. 1016 ([1]; Streptococcus pneumoniae 1016) [µg/mL] | MIC S. pyogenes 1079 ([2]; Streptococcus pyogenes 1079) [µg/mL] | MIC S. pneumo. 1095 ([3]; Streptococcus pneumoniae 1095) [µg/mL] | MIC S. pneumo. 1175 ([4]; Streptococcus pneumoniae 1175) [µg/mL] | MIC H. influenzae 1218 ([5]; Haemophilus influenzae 1218) [µg/mL]
1 | CCC1OC(=O)C(C)C(=O)C(C)C(OC2OC(C)CC(N(C)C)C2O)C(C)(OC)CC(C)C(=O)C(C)C2N(CC3CCN(Cc4cccnc4OC)C3)C(=O)OC12C (stereo not shown) [11.09] | <0.06 | >64.00 | 4 (≈ 4.9 µM) | 16 (≈ 19.6 µM) | 4 (≈ 4.9 µM) |  |  |  |  | 
2 | CCC1OC(=O)C(C)C(=O)C(C)C(OC2OC(C)CC(N(C)C)C2O)C(C)(OC)CC(C)C(=O)C(C)C2N(CC3CCCN3C(=O)c3cnc4ncccc4c3)C(=O)OC12C (stereo not shown) [10.38] | <0.06 | >64.00 | <0.06 | 0.5 (≈ 0.587 µM) | 1 (≈ 1.17 µM) |  |  |  |  | 
3 | CC[C@H]1OC(=O)[C@H](C)C(=O)[C@H](C)[C@@H](O[C@@H]2O[C@H](C)C[C@H](N(C)C)[C@H]2O)[C@](C)(OC)C[C@@H](C)C(=O)[C@H](C)[C@H]2N(CC3(O)CN(C(=O)c4cc5cccnc5[nH]4)C3)C(=O)O[C@]12C [7.26] | <0.06 | >64.00 | 0.12 (≈ 0.143 µM) | 0.25 (≈ 0.297 µM) | 0.5 (≈ 0.594 µM) |  |  |  |  | 
4 | CCC1OC(=O)C(C)C(=O)C(C)C(OC2OC(C)CC(N(C)C)C2O)C(C)(OC)CC(C)C(=O)C(C)C2N(C3CN(S(=O)(=O)c4cc(Cl)ccc4OC)C3)C(=O)OC12C (stereo not shown) [Example 3.106, 3-descladinosyl-11,12-dideoxy-6-O-methyl-3-oxo-12,11-(oxycarbonyl-(1-(5-chloro-2-methoxybenzene-1-sulfonyl)-azetidin-3-yl)-imino)-erythromycin A] |  |  |  |  |  | <0.063 | 0.5 (≈ 0.573 µM) | <0.063 | <0.063 | 0.5 (≈ 0.573 µM)
5 | CCC1OC(=O)C(C)C(=O)C(C)C(OC2OC(C)CC(N(C)C)C2O)C(C)(OC)CC(C)C(=O)C(C)C2N(CC3CN(C(=O)c4cccc5ncoc45)C3)C(=O)OC12C.O=CO (stereo not shown) [4.46] |  |  |  |  |  | <0.06 | 64 | 0.5 | <0.06 | 1
6 | CCC1OC(=O)C(C)C(=O)C(C)C(OC2OC(C)CC(N(C)C)C2O)C(C)(OC)CC(C)C(=O)C(C)C2N(C3CN(S(=O)(=O)c4cnn(-c5ccccn5)c4)C3)C(=O)OC12C (stereo not shown) [Example 3.21, 1-(pyridin-2-yl)-1H-pyrazole-4-sulfonyl] |  |  |  |  |  | <0.06 | >64.00 | <0.06 | <0.06 | 1 (≈ 1.14 µM)
7 | CCC1OC(=O)C(C)(F)C(=O)C(C)C(OC2OC(C)CC(N(C)C)C2O)C(C)(OC)CC(C)C(=O)C(C)C2N(CC3CCCN3C(=O)c3nccc4ccccc34)C(=O)OC12C (stereo not shown) [10.29] | <0.06 | 16 (≈ 18.4 µM) | <0.06 | 0.12 (≈ 0.138 µM) | 2 (≈ 2.3 µM) |  |  |  |  | 
8 | CCC1OC(=O)C(C)C(=O)C(C)C(OC2OC(C)CC(N(C)C)C2O)C(C)(OC)CC(C)C(=O)C(C)C2N(C3CN(S(=O)(=O)c4ccc(-n5ccnc5)c(C)c4)C3)C(=O)OC12C (stereo not shown) [Example 3.53, 4-(1H-imidazol-1-yl)-3-methylbenzenesulfonyl] |  |  |  |  |  | <0.06 | 64 (≈ 72.1 µM) | <0.06 | 0.25 (≈ 0.282 µM) | 4 (≈ 4.5 µM)
9 | CCC1OC(=O)C(C)C(=O)C(C)C(OC2OC(C)CC(N(C)C)C2O)C(C)(OC)CC(C)C(=O)C(C)C2N(C3CN(S(=O)(=O)c4cnn(-c5ccccc5)c4C)C3)C(=O)OC12C (stereo not shown) [Example 3.12, 5-methyl-1-phenyl-1H-pyrazole-4-sulfonyl] |  |  |  |  |  | <0.06 | 64 (≈ 72.1 µM) | 1 (≈ 1.13 µM) | <0.06 | 4 (≈ 4.5 µM)
10 | CCC1OC(=O)C(C)C(=O)C(C)C(OC2OC(C)CC(N(C)C)C2O)C(C)(OC)CC(C)C(=O)C(C)C2N(C3CN(S(=O)(=O)c4ccc(OC)c(OCC#N)c4)C3)C(=O)OC12C (stereo not shown) [Example 3.109, 3-descladinosyl-11,12-dideoxy-6-O-methyl-3-oxo-12,11-(oxycarbonyl-(1-(3-(cyanomethoxy)-4-methoxybenzene-1-sulfonyl)-azetidin-3-yl)-imino)-erythromycin A] |  |  |  |  |  | <0.063 | 0.125 (≈ 0.14 µM) | <0.063 | <0.063 | <0.063
11 | CCC1OC(=O)C(C)C(=O)C(C)C(OC2OC(C)CC(N(C)C)C2O)C(C)(OC)CC(C)C(=O)C(C)C2N(C3CN(Cc4ccncc4F)C3)C(=O)OC12C (stereo not shown) [Example 1.78, 3-descladinosyl-11,12-dideoxy-6-O-methyl-3-oxo-12,11-(oxycarbonyl-(1-(3-fluoropyridine-4-methyl)-azetidin-3-yl)-imino)-erythromycin A] |  |  |  |  |  | <0.063 | 4 (≈ 5.15 µM) | <0.063 | <0.063 | 1 (≈ 1.29 µM)
12 | CCC1OC(=O)C(C)C(=O)C(C)C(OC2OC(C)CC(N(C)C)C2O)C(C)(OC)CC(C)C(=O)C(C)C2N(CC3CN(Cc4cnn5ccccc45)C3)C(=O)OC12C.O=CO (stereo not shown) [4.42] |  |  |  |  |  | <0.06 | >64.00 | 0.5 | <0.06 | 0.12
13 | CCC1OC(=O)C(C)C(=O)C(C)C(OC2OC(C)CC(N(C)C)C2O)C(C)(OC)CC(C)C(=O)C(C)C2N(CC3CN(Cc4cnc5ccccc5n4)C3)C(=O)OC12C (stereo not shown) [4.12] |  |  |  |  |  | <0.06 | 64 (≈ 77.7 µM) | 8 (≈ 9.71 µM) | 0.12 (≈ 0.146 µM) | 1 (≈ 1.21 µM)
14 | CCC1OC(=O)C(C)C(=O)C(C)C(OC2OC(C)CC(N(C)C)C2O)C(C)(OC)CC(C)C(=O)C(C)C2N(CC3CCCN3C(=O)c3cn4ccccc4n3)C(=O)OC12C (stereo not shown) [10.54] | <0.06 | 64 (≈ 76.2 µM) | <0.06 | 0.25 (≈ 0.298 µM) | 1 (≈ 1.19 µM) |  |  |  |  | 
15 | CCC1OC(=O)C(C)C(=O)C(C)C(OC2OC(C)CC(N(C)C)C2O)C(C)(OC)CC(C)C(=O)C(C)C2N(C3CN(S(=O)(=O)c4ccc5c(cnn5C)c4)C3)C(=O)OC12C (stereo not shown) [Example 3.94, 3-descladinosyl-11,12-dideoxy-6-O-methyl-3-oxo-12,11-(oxycarbonyl-(1-(1-methyl-1H-indazole-5-sulfonyl)-azetidin-3-yl)-imino)erythromycin A] |  |  |  |  |  | <0.06 | 0.25 (≈ 0.29 µM) | 0.12 (≈ 0.139 µM) | <0.06 | 0.25 (≈ 0.29 µM)
16 | CCC1OC(=O)C(C)C(=O)C(C)C(OC2OC(C)CC(N(C)C)C2O)C(C)(OC)CC(C)C(=O)C(C)C2N(C3CN(S(=O)(=O)c4ccc(N5CCOC5=O)cc4)C3)C(=O)OC12C (stereo not shown) [Example 3.115, 3-descladinosyl-11,12-dideoxy-6-O-methyl-3-oxo-12,11-(oxycarbonyl-(1-(4-(2-oxooxazolidin-3-yl)benzene-1-sulfonyl)-azetidin-3-yl)-imino)-erythromycin A] |  |  |  |  |  | <0.063 | 0.25 (≈ 0.28 µM) | <0.063 | 0.125 (≈ 0.14 µM) | 1 (≈ 1.12 µM)
17 | CCC1OC(=O)C(C)C(=O)C(C)C(OC2OC(C)CC(N(C)C)C2O)C(C)(OC)CC(C)C(=O)C(C)C2N(C3CN(S(=O)(=O)c4ccc5cn[nH]c5c4)C3)C(=O)OC12C (stereo not shown) [Example 3.85, 3-descladinosyl-11,12-dideoxy-6-O-methyl-3-oxo-12,11-(oxycarbonyl-(1-(1H-indazole-6-sulfonyl)-azetidin-3-yl)-imino)-erythromycin A] |  |  |  |  |  | <0.06 | 1 (≈ 1.18 µM) | <0.06 | <0.06 | 0.25 (≈ 0.295 µM)
18 | CCC1OC(=O)C(C)C(=O)C(C)C(OC2OC(C)CC(N(C)C)C2O)C(C)(OC)CC(C)C(=O)C(C)C2N(CC3CCCN3C(=O)c3ccc4ncccc4c3)C(=O)OC12C (stereo not shown) [10.06] | <0.06 | 64 (≈ 75.2 µM) | <0.06 | 0.12 (≈ 0.141 µM) | 2 (≈ 2.35 µM) |  |  |  |  | 
19 | CCC1OC(=O)C(C)C(=O)C(C)C(OC2OC(C)CC(N(C)C)C2O)C(C)(OC)CC(C)C(=O)C(C)C2N(CC3CCN(Cc4c[nH]c5cnccc45)C3)C(=O)OC12C (stereo not shown) [13.03] | <0.06 | >64.00 | 1 (≈ 1.21 µM) | 4 (≈ 4.84 µM) | 2 (≈ 2.42 µM) |  |  |  |  | 
20 | CCC1OC(=O)C(C)C(=O)C(C)C(OC2OC(C)CC(N(C)C)C2O)C(C)(OC)CC(C)C(=O)C(C)C2N(C3CCN(Cc4c[nH]c5ncccc45)C3)C(=O)OC12C [Example 9.03, 3-descladinosyl-11,12-dideoxy-6-O-methyl-3-oxo-12,11-(oxycarbonyl-(1-((1H-pyrrolo[2,3-b]pyridin-3-yl)-methyl)-(R)-pyrrolidin-3-yl)-imino)-erythromycin A] | <0.06 | 1 (≈ 1.23 µM) | <0.06 | 0.5 (≈ 0.616 µM) | 0.12 (≈ 0.148 µM) |  |  |  |  | 
